Experiments:
Assay type in all cases: cell-based
[1] = system: human subcutaneous pre-adipocytes; test: Lipid accumulation in human subcutaneous pre-adipocytes, Adipored staining (Example 13); conditions: coculture of young and old pre-adipocytes, 0.01 mg/ml, 12 days
Description: The aim of this study is to investigate the capacity of peptide candidates to induce lipid accumulation in human subcutaneous adipocytes, and therefore prevent adipocytes senescence. Measurement of lipid accumulation in a coculture of young and old adipose cells indirectly evaluates the inhibition of senescence-associated secretory phenotype (SASP). A pool of old adipose cells has a higher number of senescent cells. When cocultured with young cells, lipid accumulation observed is below the theoretically expected levels due to senescence induction effect of SASP on young adipocytes.
Induction of lipid accumulation by the peptides of the invention is evaluated by lipid fluorescent staining with Adipored® Assay Reagent. Human subcutaneous pre-adipocytes (donors, Cell applications) cells are cocultured in 96-well plates at a density of 4×10^3 cells/well each age in Human Preadipocyte Growth Medium (Sigma). Monoculture of each age are seeded at a density of 8×10^3 cells/well as age lipid accumulation controls. After 24 hours incubation, differentiation of pre-adipocytes into adipocytes is induced by changing medium to fresh Human Preadipocyte Differentiation Medium (Promocell). […] Finally, fluorescence intensity and nuclei number are measured by Operetta™ (Perkin Elmer). Fluorescence is normalized by cell nuclei and results are represented respect to cocultured basal control.

[2] = system: Muscle bind like protein 1 (MBNL1); test: MBNL1 quantification in human dermal fibroblasts by immunofluorescence (Example 8); conditions: HDF, 1, 0.5 and 0.01 mg/ml, 24 hours, nuclear fluorescence normalized by nuclei
Method: MBNL1 induction by the peptides of the invention is evaluated by an Immunofluorescence assay. The aim of this study is to investigate the capacity of peptide candidates to increase MBNL1 in human dermal fibroblasts (HDF).
HDF (Cascade) are seeded in 96-well plates at a density of 8×10^3 cells/well in Fibroblast Growth Medium (Promocell). After 48 hours incubation, medium is removed and fresh medium with 1, 0.5 and 0.01 mg/ml of test items is added. Treatment is continued for 24 hours and non-treated cells are used as basal control. After 24 hours of treatment, an immunofluorescence is performed. Cells are fixed 15 minutes with 4% Paraformaldehide (Sigma), permeated 15 minutes with 1% Triton X-100 (Sigma) and then blocked with 5% Bovine Serum Albumin (Sigma). Next, primary antibody Anti-MBNL1 Rabbit (Sigma) is added and incubated for 2 hours. After that, secondary antibody Alexa Fluor™ 488 goat anti-rabbit IgG (Life Technologies) is added and incubated for 1 hour. To stain nuclei, Hoechst (Life Technologies) is added and incubated for 10 minutes. Finally, MBNL1 cell nuclei fluorescence intensity and nuclei number are measured by Operetta™ (Perkin Elmer). Fluorescence is normalized by cell nuclei and results are represented respect to basal control.

[3] = system: human muscular skeletal cells (hSKMC); test: Alleviation (correction) of TNF-α induced muscle mass loss in human skeletal muscle cells, immunofluorescence (Example 10); conditions: 0.01 mg/ml after 24 hours of 20 ng/ml TNFα, myotube diameter threshold 20 μm
Method: Muscle mass loss correction by the peptides of the invention is evaluated by an immunofluorescence assay. The aim of this study is to investigate the capacity of peptide candidates to correct muscular mass loss after treatment with TNF-α in human muscular skeletal cells (hSKMC). Myosin heavy chain (MHyC) is used as a morphologic marker of differentiated myotubes allowing the measurement of their diameter, and therefore knowing their degree of mass loss. Tumor necrosis factor α (TNF-α) has been described in the literature as a muscle mass loss inductor.
hSKMC (Tebu-Bio) are seeded in 96-well plates at a density of 1.5×10^4 cells/well in Skeletal Muscle Cell Growth Medium (Promocell). After 24 hours incubation, medium is replaced with Skeletal Muscle Cell Differentiation Medium (Promocell) and cells are differentiated for 6 days. After this, muscular cells mass loss is induced by adding fresh differentiation medium with 20 ng/ml TNFα (Sigma). Non-TNFα treated cells are used as basal mass loss control (BC). […] After 24 hours after the second treatment, immunofluorescence is determined. […] Finally, myotube diameter is determined by imaging MHyC staining by Operetta™ (Perkin Elmer). Percentage of mass loss is automatically calculated with Harmony™ (Perkin Elmer) software by classifying myotubes according to their diameter using a mass loss threshold of 20 μm.

[4] = system: human muscular skeletal cells (hSKMC); test: Prevention of TNF-α induced muscle mass loss in human skeletal muscle cells, immunofluorescence (Example 9); conditions: 0.5 mg/ml with 20 ng/ml TNFα, 48 hours, myotube diameter threshold 20 μm
Method: Myosin heavy chain (MHyC) is used as a morphologic marker of differentiated myotubes allowing the measurement of their diameter, and therefore knowing their degree of mass loss. Tumor necrosis factor α (TNF-α) has been described in the literature as a muscle mass loss inductor.
Muscle mass loss prevention by the peptides of the invention is evaluated by an immunofluorescence assay. The aim of this study is to investigate the capacity of peptide candidates to prevent muscular mass loss in presence of TNF-α in human muscular skeletal cells (hSKMC).
hSKMC (Tebu-Bio) are seeded in 96-well plates at a density of 1.5×10^4 cells/well in Skeletal Muscle Cell Growth Medium (Promocell). After 24 hours incubation, medium is replaced with Skeletal Muscle Cell Differentiation Medium (Promocell) and cells are differentiated for 6 days. After this, fresh differentiation medium with 0.5 mg/ml of test items and 20 ng/ml of TNFα (Sigma) is added. Treatment is continued for 48 hours and non-treated cells are used as basal control and 20 ng/ml TNFα treated cells are used as a muscle mass loss control. […] Finally, myotube diameter is determined by imaging MHyC staining by Operetta™ (Perkin Elmer). Percentage of mass loss is automatically calculated with Harmony™ (Perkin Elmer) software by classifying myotubes according to their diameter using an atrophic threshold of 20 μm. […]

Substance | lipid accumulation compared to basal control and old control [1] | MBNL1 levels compared to the basal control [2] | muscle mass loss compared to basal control treated with TNF-α (correction) [3] | muscle mass loss compared to TNF-α treatment (prevention) [4]
Ac-Asp-Val-Tyr-Lys-NH2 (Ac-DVYK-NH2) [PEP1] | increase lipid accumulation in adipocytes | increase MBNL1 levels | correct (i.e., reduces) mass loss | prevent mass loss
H-Ala-Leu-Lys-Pro-Asn-Thr-NH2 (H-ALKPNT-NH2) [PEP2] | increase lipid accumulation in adipocytes | increase MBNL1 levels | correct (i.e., reduces) mass loss | prevent mass loss

From patent publication US12419824B2, “Compounds useful for the treatment and/or care of the skin, hair, nails and/or mucous membranes” (Lubrizol Advanced Materials, Inc., priority 2019, dated 2025)
